How the values were obtained:
[1] = H2S absorption by iron oxalate in oil based mud (interdrill 1.62), GGT analysis (Example 2); details: 400 mg iron oxalate in 15 ml interdrill 1.62 oil based mud, water phase pH 12.5, 1.5 ml solution D
Procedure: In A, B and C iron oxalate was added.
The jar containing the mixture was then shaken. From this mixture a new sample of 1 ml mud was taken out with a syringe. This new sample consisting of 1 ml mud was mixed with 20 ml of water and further analysed in GGT (Garret Gas Train) whereby the mixture was stirred with a magnetic stirrer.
The mud which was used in example 2 was of the type interdrill 1.62 (density of the mud), wherein the pH value in the water phase is 12.5.

[2] = H2S absorption by iron oxalate at low concentrations of H2S, GGT analysis (Example 3); details: low H2S concentration, 200 mg iron oxalate in 15 ml mud, 1.5 ml solution D
Procedure: Measurements at low concentrations of H2S were also carried out.
From this mixture a new sample of 1 ml mud was taken out with a syringe and mixed with 20 ml of water and analysed in GGT (Garret Gas Train) whereby the mixture was stirred with a magnetic stirrer.

O=C([O-])C(=O)[O-].[Fe+2] [iron oxalate, iron(II) oxalate]
Amount of remaining H2S in the mud sample measured by GGT analysis ([1]; ageing 17 hours): 51 ppm | Amount of remaining H2S in the mud sample measured by GGT analysis ([1]; ageing 40 hours): 34 ppm | Amount of remaining H2S in the mud sample measured by GGT analysis ([1]; ageing 64 hours): 57 ppm | Amount of remaining H2S in the mud sample measured by GGT analysis ([2]; ageing 1 hour): 8.5 ppm | Amount of remaining H2S in the mud sample measured by GGT analysis ([2]; ageing 18 hours): 0 ppm | Amount of remaining H2S in the mud sample measured by GGT analysis ([2]; ageing 25 hours): 0 ppm

— patent publication US6365053B1, “Removal of H2S in drilling mud” (Statoil Asa, priority 1998, dated 2002)
